Data on 89 compounds can be found in a melting point compilation (Tetko et al.; mined from patent text by program, amines drawn as free bases though some values may be those of a salt).

Turning to `N#Cc1ccc(N2CC(C(=O)N3CCN(CC(=O)OCc4ccccc4)CC3)OC2=O)cc1` (centres undefined), the melting point – broadly, the temperature of the solid-liquid transition – lay in the range of 131 to 132 °C.
Then `N#Cc1sc(Cl)nc1Cl`, with 34 to 35 °C; and `Cc1cc(C)c(COc2cccc3c2C(=O)c2c(Cl)ccc(Cl)c2C3=O)c(C)c1`, with 216 to 218 °C; and `Cc1nnc(-c2ccc3occ(-c4ccc5c(c4)C(C)(C)CS5(=O)=O)c3c2)o1`, with 242 to 243 °C.
Then `CC(C)(C(=O)O)c1ccc2cc(O)ccc2c1`, with 208 to 210 °C.
Take `COc1ccnc(N2CCN(CC3(CNC(C)=O)C=CC=CC3)CC2)n1` (centres undefined): the melting point lay within 144 to 145 °C.
With `O=C(NN=Cc1c(O)ccc2ccccc12)c1ccccc1O` the figure was 265 °C; with `CCC(CC)(CC(=O)Nc1cccc(OCc2ccc3ccccc3n2)c1)C(=O)O`, 149 to 150 °C.
Then `CCc1ccccc1-c1cccc(Br)c1OCc1cccc(C(=O)NCCO)c1`, with 82.2 to 84.2 °C; and `O=C(COc1ccc(Cc2ccc(Cl)cc2)cc1)OCc1cccnc1`, with 77 to 78 °C.
Consider `Cc1cccc(C)c1Sc1nc[nH]n1`, for which the melting point was 126 to 127 °C.
Then `CCCc1c(OCCCCCC(=O)c2cc(OC)c(OC)cc2F)ccc(C(=O)OC)c1O`, with 127 to 129 °C; and `O=C(Oc1ccc([N+](=O)[O-])cc1)OC1CCN(C(=O)Oc2ccc(Oc3ccccc3)cc2)CC1`, with 108 to 109 °C.
With `CC1=C(C(=S)Cc2ccccc2)C(c2ccccc2)C2=C(N1)c1ccccc1C2=O` (centres undefined) the figure was 226 to 228 °C; with `CC12CC(O)C3c4cc(O)ccc4CCC3C1CCC2O` (centres undefined), 229 to 232 °C.
As for `Cn1cc(-c2cc(-c3cnc4[nH]ccc4c3)ccn2)n(-c2ccc(C(C)(C)C(N)=O)cc2)c1=O`, the melting point worked out at 299 °C.
Then `C=CC(CSCCC(F)(F)C(F)(F)C(F)(F)C(F)(F)C(F)(F)C(F)(F)F)SSc1nc2ccccc2s1` (centres undefined), with 47 to 48 °C; and `NC(=O)c1sc2ncnc(-c3cccc(NC(=O)Nc4cccnc4)c3)c2c1N`, with 199 to 200 °C; and `O=C(O)c1ccc(-n2c(-c3ccccc3)cc3c2CCCC3)cc1`, with 244 to 246 °C.
With `O=C(O)c1ccc(O)c(OCc2ccccc2)c1` the figure was 167 to 171 °C; with `COc1ccc(N2CCCC2=O)cc1OC1CCCC1`, 130 to 131 °C; with `CCOC(=O)C1=C(C)NC(CN2C(=O)c3ccccc3C2=O)=C(C(=O)OCC)C1c1ccccc1` (centres undefined), 169 to 170 °C.
With `CC(=O)NC[C@H]1CN(c2ccc(N3C[C@@H]4C[C@H]3CS4)c(F)c2)C(=O)O1` the figure was 90 to 95 °C.
With `Cc1nn2c(-c3ccc(Cl)cc3Cl)cccc2c1[N+](=O)[O-]`, the melting point was in the range of 146 to 150 °C.
The compound `Cc1ccnc(C(=O)c2[nH]c3ccc(Cl)cc3c2CC(=O)N2CCC(N)C2)c1` (centres undefined) displayed a melting point of 179 °C.
With `CNC(=S)N(C)NC(=O)c1cccc(F)c1` the figure was 202 to 205 °C.
Then `O=c1oc(-c2ccc(OCCCc3ccccc3)cc2)cc(O)c1SCCc1ccccc1`, with 139 to 142 °C; and `O=C(Cl)c1csc(=O)[nH]1`, with 184 °C; and `O=C(c1ccc([N+](=O)[O-])cc1)c1c(Cl)cc(O)cc1Cl`, with 118 to 120 °C.
For the compound `CCc1nc(/C=C/c2cn(-c3ccccc3)nc2OCc2ccc(OCc3nc(-c4cccc(NS(C)(=O)=O)c4)oc3C)c(OC)c2)cs1`, the melting point lay in the range of 113 to 115 °C.
With `Nc1ccc(Cl)cc1C(=O)NCCCn1cncn1` the figure was 116 to 118 °C.
`CC(=O)c1ccc(OCCCCl)c(C)c1` showed a melting point of 41.5 to 42.5 °C.
With `O=C(O)c1ccc(Oc2ccc(Oc3ccccc3)cc2)cc1` the figure was 185 °C.
Take `Nc1nc(N)nc(C2CCN(c3ccccc3)CC2)n1`: the melting point was in the range of 202 to 204 °C.
With `CON(C)C(=O)C(C)NC(=O)OC(C)(C)C` (centres undefined) the figure was 150 to 151 °C; with `CC(=Cc1ccc2[nH]ccc2c1)C(=O)O`, 207 to 209 °C; with `COC1=Cc2ccccc2C(=CC(=O)O)c2ccsc21`, 163 to 167 °C.
With `CC1(CO)Cc2nnc(-c3ccc(-c4ccc(F)cc4)cc3C(F)(F)F)n2CCS1` (centres undefined) the figure was 202 to 204 °C.
With `Cc1ccc(CSCc2ccc(C)cc2)cc1` the figure was 74 to 76 °C; with `CCOC(=O)COc1ccc(C(=O)[C@H](Cc2ccc(OC)cc2)NC(=O)OC(C)(C)C)cc1`, 95 to 97 °C.
The compound `Cc1ccnc(N=C2SC[C@@H]3Cc4ccccc4CN23)n1` gave a melting point of 179 °C.
Then `Cc1cc(S(=O)(=O)Nc2ccc(Cl)cc2)c2c(C)ccc(C(C)C)cc1-2`, with 134 to 135 °C; and `COc1cccc(C2CCCN2S(=O)(=O)c2ccc(Cl)cc2)c1` (racemic), with 95 °C; and `C=CCc1c(O)ccc2oc(C(=O)c3ccc(OC)cc3)c(C)c12`, with 155 to 158 °C.
In turn, `COc1cc(NC(=O)c2ccc(Cl)cc2)c(C(N)=O)cc1OC` came in with a melting point of 120 to 122 °C.
Then `Nc1cc(-c2nc3ccccn3c2Br)c(F)cc1F`, with 137 °C; and `COc1ccc(C(=O)N2c3ccccc3C(n3c4ccccc4c4ccccc43)CC2CCCCCN(C)C)cc1OC` (centres undefined), with 198 to 200 °C.
With `O=C1c2c(Cl)cccc2-n2cnc(-c3nnc(-c4ccccc4)o3)c2[C@@H]2CCCN12` the figure was 221 to 222 °C.
Then `CC(COc1ccc(-n2cncn2)cc1)(NS(=O)(=O)Cc1ccccc1)C(N)=O` (centres undefined), with 195 to 198 °C; and `CC(C)(C)OC(=O)N(O)C(=O)CCN`, with 85 to 87 °C; and `COc1ccc(-c2cnn3c(N)c(-c4cccc(Cl)c4)c(C)nc23)cc1`, with 171 to 172 °C.
`CC12CCC(=O)NC1=CCC1C2CCC2(C)C(=NN)CCC12` (centres undefined) registered a melting point of 379 to 382 °C.
`CC(CCc1ccc(OCCO)cc1)NCC(O)c1cccc(Cl)c1` (centres undefined) showed a melting point of 103 to 105 °C.
Then `CC1(C)Cc2c(N)c(Cl)cc(C(=O)NCCC34CCCN3CCC4)c2O1`, with 189 to 191 °C; and `CS(=O)c1nc(-c2ccccc2)c(-c2ccccc2)s1` (centres undefined), with 102 to 103 °C.
Then `CC(Cc1cccnc1)n1nnc2cc3c(=O)n(C4CC4)nnc3cc2c1=O` (centres undefined), with 160 to 161 °C; and `Cc1nc2ncnn2c2c1c(O)c(O)n2C`, with 215 to 217 °C.
Take `Cc1cccc(C(=O)Nc2nc(=O)c3ccccc3n2C)c1`: the melting point lay in the range of 266 to 269 °C.
With `O=C1NCN(c2ccccc2)C12CCN(CC1=Cc3cc(Cl)ccc3CC1)CC2` the figure was 191 to 192 °C; with `O=C(O)c1cncc(O)c1C(=O)c1cc(Cl)ccc1F`, 262 to 264 °C.
With `CCOC(=O)c1cn(-c2cc3ccccc3cn2)cn1` the figure was 161 to 162 °C; with `COc1ccc(N2C(=O)[C@@H](OC(C)=O)[C@H]2c2ccccc2)cc1` (relative stereo), 163 °C; with `CN(c1ccccc1)c1ncnc2c(I)cnn12`, 193 °C.
Turning to `O=C(O)c1cc(C(=O)C(F)(F)F)cc2c1OC(c1ccccc1)(c1ccccc1)O2`, the melting point was 187 °C.
With `Cn1c(C(F)(F)F)cc(=O)n(-c2cc(Oc3ccccc3OCc3ccccc3)c(Cl)cc2F)c1=O` the figure was 50.8 °C.
With `CCc1cc(=O)c2cc(C(C)C(=O)O)ccc2o1` (centres undefined), the melting point came to 128 °C.
With `COc1cc2ccccc2cc1NC(=O)N1CCN(c2cc(C)cc(C)c2)CC1` the figure was 105 to 107 °C; with `COc1ccc(C2Sc3cc(Oc4cccc(C)c4)ccc3NC(=O)C2O)cc1` (centres undefined), 201 to 202 °C; with `COc1ccc(-c2cc(C#N)nnc2-c2ccc(OC)cc2)cc1`, 113 to 115 °C.
In turn, `COc1ccc(-n2c(CF)nc3ccc(N)cc3c2=O)c(C)c1` showed a melting point of 200 to 202 °C.
With `O=C(Nc1ccc(C(F)(F)F)cc1)N1CC2CSc3cc(Cl)ccc3C2=N1` (centres undefined) the figure was 188 to 192 °C; with `C=Cn1cc(C(=O)O)c(=O)c2ccc(Cl)cc21`, 269 °C.
`CCCc1nc2ccc(Cl)nc2c(=O)[nH]1` yielded a melting point of 264 to 266 °C.
Then `COC(=O)NCCc1cccc(-c2ccnc3c(C#N)cnn23)c1`, with 162 to 164 °C; and `c1ccc2c(c1)NCc1nnnn1-2`, with 149 to 151 °C.
Then `CCOC(=O)c1cnc2nn(C)cc2c1NC`, with 178 to 180 °C; and `O=C(O)COc1ccc(C2=CC(=O)CCC2C2CCCC2)c(Cl)c1Cl` (centres undefined), with 206 to 207 °C.
In turn, `O=C(O)C(=O)c1cccc(OCc2ccccc2Cl)c1OCc1ccccc1Cl` displayed a melting point of 116 to 118 °C.
Then `NC(CSc1ccccc1N)=NO`, with 80 °C; and `CCC(C)(C)c1ccc(OCCCNC(=O)c2cc(OS(=O)(=O)CCCOc3ccc([N+](=O)[O-])cc3)c3ccccc3c2O)c(C(C)(C)CC)c1`, with 140 to 141 °C; and `COc1ccc(CN2c3ccc(Cl)cc3C=C(C(=O)O)C2C(F)(F)F)cc1` (centres undefined), with 196 to 197 °C.
`CC1(C)Oc2cc3nonc3cc2C(N2CCC(Br)CC2=O)C1O` (centres undefined) came in with a melting point of 250 to 253 °C.
With `O=C(Nc1cccc2cc(COc3ccccc3)cnc12)c1c(Cl)cccc1Cl` the figure was 157 °C; with `CNc1nc(-c2cccc(Oc3ccccc3)c2)c2cc(OC)c(OC)cc2n1`, 157 to 159 °C.
Then `CCC(=O)OC1C(=O)N(c2nnc(C(C)(C)C)s2)C(=O)N1C` (centres undefined), with 176 °C; and `Cn1nc2ccc(OCCCN3CCC(OC(c4ccccc4)c4ccccc4)CC3)nn2c1=O`, with 139 to 140 °C.
With `O=C(O)c1cc2cnc3ccccc3n2c1` the figure was 242 to 247 °C; with `Nc1c(C(=O)O)cc(Br)nc1Br`, 251 to 253 °C; with `CCOC(=O)C(C(=O)OCC)C(Cc1cc(C(F)(F)F)ccc1N)c1ccccc1Cl` (centres undefined), 74 to 76 °C.
